Measurements as given in EP4793274A1, “SALT AND CRYSTAL FORM OF KIF18A INHIBITOR COMPOUND, PREPARATION METHOD THEREFOR AND USE THEREOF” (Hubei Bio-Pharmaceutical Industrial Technological Institute …, priority 2023, dated 2025).

Assays:
Format in all cases: physicochemical
[1] = Dynamic solubility at 37 °C in H2O, SGF, FaSSIF and FeSSIF (HPLC concentration, pH of filtrate, XRPD of residual solid); settings: for S: solubility: feeding concentration 10 mg/mL; for FC: crystal form change: XRPD of residual solid; for pH: pH of filtrate
Procedure: 0.82 mL of glacial acetic acid and 1.18 g of NaCl were added to a 100 mL volumetric flask and completely dissolved by addition of purified water.
The solubility of each sample in H2O, SGF, FaSSIF, and FeSSIF was determined at different time points (1 h, 2 h, 4 h, and 24 h). […] 137-156. […] Table C-2. Summary of dynamic solubility test results at 37 °C

[2] = Hygroscopicity by dynamic vapor sorption (DVS)
Procedure: Dynamic vapor sorption (DVS) curves were acquired on a DVS IntrInsic from Surface Measurement Systems (SMS). The relative humidity at 25 °C was corrected with the deliquescence points of LiCl, Mg(NO3)2, and KCl. Table A-5. DVS test parameters
The percentage changes in mass of the samples when the humidity changed (0% RH to 95% RH) at a constant temperature of 25 °C were collected. 157-166.

[3] = Solid state stability (XRPD and HPLC purity); settings: 80 °C/sealed condition for 1 day
Excerpt: 167-171. […] Table C-3. Summary of solid state stability evaluation

For `Cc1cc(-c2cnn(-c3ccc(NS(=O)(=O)CCO)cc3N3CCC4(CC3)CC4)c2)nc(N2CCC(F)(F)CC2)n1` [free crystal form D], which “S: solubility” value ([1]; FaSSIF, 1 h, 60 min) is on record?
The value was 6.5 µg/mL.

And the “S: solubility” value ([1]; FaSSIF, 2 h, 120 min)?
Its value is 6.5 µg/mL.

What about the “S: solubility” value ([1]; FaSSIF, 4 h, 240 min) of the same molecule?
The value was 6.3 µg/mL.

What about the “S: solubility” value ([1]; FaSSIF, 24 h, 1440 min) of the same molecule?
The value was 5 µg/mL.

And the “S: solubility” value ([1]; FeSSIF, 1 h, 60 min)?
Its value is 16.2 µg/mL.

What about the “S: solubility” value ([1]; FeSSIF, 2 h, 120 min) of the same molecule?
Its value is 17.2 µg/mL.

And the “S: solubility” value ([1]; FeSSIF, 4 h, 240 min)?
The value was 15.4 µg/mL.

What about the “S: solubility” value ([1]; FeSSIF, 24 h, 1440 min) of the same molecule?
Its value is 15 µg/mL.

And the “S: solubility” value ([1]; H2O, 1 h, 60 min)?
The value was 0.1 µg/mL.

What about the “S: solubility” value ([1]; H2O, 2 h, 120 min) of the same molecule?
Its value is 0.1 µg/mL.

And the “S: solubility” value ([1]; H2O, 4 h, 240 min)?
Its value is 0.2 µg/mL.

What about the “S: solubility” value ([1]; SGF, 1 h, 60 min) of the same molecule?
Its value is 6.2 µg/mL.

And the “S: solubility” value ([1]; SGF, 2 h, 120 min)?
Its value is 5.7 µg/mL.

And the “S: solubility” value ([1]; SGF, 4 h, 240 min)?
Its value is 5.9 µg/mL.

And the “S: solubility” value ([1]; SGF, 24 h, 1440 min)?
Its value is 5.1 µg/mL.

What about the “FC: crystal form change” value ([1]; FaSSIF, 1 h) of the same molecule?
The value was “No”.

And the “FC: crystal form change” value ([1]; FaSSIF, 2 h)?
The value was “No”.

What about the “FC: crystal form change” value ([1]; FaSSIF, 4 h) of the same molecule?
The value was “No”.

And the “FC: crystal form change” value ([1]; FaSSIF, 24 h)?
The value was “No”.

And the “FC: crystal form change” value ([1]; FeSSIF, 1 h)?
The value was “No”.

And the “FC: crystal form change” value ([1]; FeSSIF, 2 h)?
Its value is “No”.

And the “FC: crystal form change” value ([1]; FeSSIF, 4 h)?
The value was “No”.

And the “FC: crystal form change” value ([1]; FeSSIF, 24 h)?
The value was “No”.

And the “FC: crystal form change” value ([1]; H2O, 1 h)?
The value was “No”.

And the “FC: crystal form change” value ([1]; H2O, 2 h)?
Its value is “No”.

And the “FC: crystal form change” value ([1]; H2O, 4 h)?
The value was “No”.

What about the “FC: crystal form change” value ([1]; H2O, 24 h) of the same molecule?
Its value is “No”.

And the “FC: crystal form change” value ([1]; SGF, 1 h)?
The value was “No”.

What about the “FC: crystal form change” value ([1]; SGF, 2 h) of the same molecule?
Its value is “No”.

And the “FC: crystal form change” value ([1]; SGF, 4 h)?
The value was “No”.

And the “FC: crystal form change” value ([1]; SGF, 24 h)?
The value was “No”.

What about the pH ([1]; FaSSIF, 1 h) of the same molecule?
Its pH is 6.51.

And the pH ([1]; FaSSIF, 2 h)?
The pH was 6.53.

What about the pH ([1]; FaSSIF, 4 h) of the same molecule?
The pH was 6.55.

And the pH ([1]; FaSSIF, 24 h)?
Its pH is 6.49.

And the pH ([1]; FeSSIF, 1 h)?
The pH was 4.97.

And the pH ([1]; FeSSIF, 2 h)?
The pH was 5.01.

And the pH ([1]; FeSSIF, 4 h)?
Its pH is 4.97.

And the pH ([1]; FeSSIF, 24 h)?
Its pH is 4.96.

And the pH ([1]; H2O, 1 h)?
The pH was 6.91.

And the pH ([1]; H2O, 2 h)?
The pH was 7.64.

And the pH ([1]; H2O, 4 h)?
The pH was 7.88.

What about the pH ([1]; H2O, 24 h) of the same molecule?
The pH was 7.65.

What about the pH ([1]; SGF, 1 h) of the same molecule?
The pH was 1.26.

What about the pH ([1]; SGF, 2 h) of the same molecule?
The pH was 1.38.

What about the pH ([1]; SGF, 4 h) of the same molecule?
Its pH is 1.29.

What about the pH ([1]; SGF, 24 h) of the same molecule?
Its pH is 1.32.

And the “crystal form after the DVS test (XRPD)” value ([2]; 25 °C, 0% RH to 95% RH)?
The value was “converted to the free crystal forms D + J”.

What about the vapor sorption values ([2]; 25 °C/80% RH) of the same molecule?
The vapor sorption values was 3.129%.

And the “crystal form after the stability test (XRPD)” value [3]?
Its value is “converted to the free crystal forms J + D”.
